# In patent publication US20080181957A1, “INCREASED AMORPHOUS STABILITY OF POORLY WATER SOLUBLE DRUGS BY NANOSIZING” (priority 2006, published 2008):
# What was measured:
# Type in all cases: physicochemical
# Water solubility = conditions: 25 °C
# Method: “Water solubility” means a measure of the maximum possible concentration of a drug dissolved in water. The water temperature may be specified; in an embodiment water solubility is determined at 25 Deg. C. Units of measurement of water solubility are typically mass/volume, such as mg/ml. […] C.; preferably less than or equal to about 0.1 mg/ml at 25 Deg. […] C.
# [1] = XRD amorphous stability of dried samples on storage; conditions: storage 3 month and 1 year, nanosized sample dried by lyophilization, FIGS. 1 and 2
# [2] = DSC amorphous stability (recrystallization) on storage at 25 Deg C; conditions: FIG. 3; for crystallinity: DSC
# Method: The amorphous state of the amorphous drug core is determined by subjecting a population of nanoparticles that comprise one or more nanoparticles that comprise the recited amorphous drug core to differential scanning calorimetry (DSC). In an embodiment, a DSC method according to the invention used a Perkin-Elmer DSC-7 or a Diamond DSC calorimeter applied for the measurement of specific transition temperatures of tested samples. Thus, the glass transition (Tg), melting (Tm) and crystallization (Tc) temperatures were measured for each sample, according to the PN-EN ISO 11357-1:2002 (ISO 11357-1:1997), ISO 11357-2:1999 and ISO 11357-3:1999 standards, at the rate of temperature change of 10 Deg C./min. The instrument was calibrated using indium, tin and zinc certified reference materials (CRMs)
# The amorphous state of the amorphous drug core, as measured by DSC is expressed as a weight fraction of the weight of amorphous material in the amorphous drug core to the total weight of the amorphous drug core, expressed as an average value across the population of nanoparticles being measured. For instance, if a population of nanoparticles was measured using DSC, and the amorphous state was determined to be a particular value for the population, that value would be considered the average amorphous state for each nanoparticle within the population. An inventive amorphous drug core may contain a small amount of crystalline drug.
# “Amorphous stability” means a measure of how much a material changes in its structure from being amorphous to being crystalline under defined conditions and a set timeframe. […] For instance, an amorphous material that is initially 98% w/w amorphous is considered amorphously stable according to the invention if, at the end of 6 months testing at 25 degree C., the material is at least 88% w/w amorphous. The amorphous state of a material according to the invention is determined using a DSC method as detailed above and elsewhere herein.
solubility (Water solubility) [ng/mL],crystallinity ([2]; 4 month time point) [%],crystallinity ([2]; 5 month time point) [%],crystallinity ([2]; 6 month time point) [%],storage time after which recrystallization was detectable by DSC ([2]; storage at 25 Deg C) [month],SMILES,XRD amorphous stability [1]
≤ 0.2,,,,,O=C(NN1CCCCC1)c1nn(-c2ccc(Cl)cc2Cl)c2c1CCC/C2=C\c1ccc(F)cc1 [COMPOUND 1],
,0.44,1.39,10.54,4,O=C(NN1CCCCC1)c1nn(-c2ccc(Cl)cc2Cl)c2c1CCC/C2=C\c1ccc(F)cc1 [bulk amorphous COMPOUND 1],XRD amorphous stability can be achieved up to 1 year
